Experimental data taken from patent US20250381165A1, “Method of Use for Benzofuran Compounds” (Tampa Bay Research Institute, Inc., priority 2024, published 2025).

What was measured:
[1] = tested on: SIINFEKL specific CD8+ T cells; assay: Immunization with BzFβ/SIINFEKL treated DC2.4 cells; type: in vivo, C57BL/6crl mice; details: mice immunized sc with 1.2×10^6 DC2.4 treated with 50 μg/mL BzFβ then 1 μg/mL SIINFEKL; prime and boost
Procedure: DC2.4 cells that had been matured by an overnight treatment with 20 ng/mL murine IFNγ (He, et al., Interferon gamma stimulates cellular maturation of dendritic cell line DC2.4 leading to induction of efficient cytotoxic T cell responses and antitumor immunity. Cell Mol Immunol. 2007; 4(2):105-11) were treated with 30 μg/mL mitomycin C to block replication and were then pulsed for 1 h with 1 μg/mL SIINFEKL peptide (Group 2), or with 50 μg/mL BzFβ for 1 h and then with 1 μg/mL SIINFEKL peptide for 1 h (Group 3).
Female C57BL/6crl mice were separated into 3 groups with 6 mice per group. The mice in Group 1 served as the naïve, no treatment group, Group 2 treated with by subcutaneous injection of 1.2×10^6 DC2.4 cells primed with IFNγ, mitomycin C and SIINFEKL, and Group 3 treated by subcutaneous injection of 1.2×10^6 DC2.4 cells primed with BzFβ and SIINFEKL as outlined above. […] Fourteen days later, the number of MHC class I/SIINFEKL tetramer positive CD8+ cells in the peripheral blood and spleen were determined.
On day 21 (14 days after the last immunization) blood was collected from the retro-orbital plexus. […] The number of CD19 negative^−/CD8 positive/SIINFEKL tetramer positive cells was determined by flow cytometric analysis following collection of positive events detected in the lymphocyte gate. […]

[2] = tested on: DC2.4 cells presenting SIINFEKL to B3Z CD8+ T cell hybridoma; assay: B3Z activation by SIINFEKL-pulsed DC2.4 (CPRG β-gal assay); type: cell-based, murine
Procedure: DC2.4 cells (2.5×10^4 cells/well) were seeded at 100 μL/well in 96 well tissue culture white sided/white bottom plate and incubated overnight to allow for cell adherence. 37° C. in an atmosphere containing 5% CO2 and 95% humidity. Following pre-treatment of the DC2.4 cells (1-24 h) with escalating doses of the test molecules, the cells were washed, pulsed with 0.5 nM of the MHC class I H-2Kb peptide, SIINFEKL, for 1 h, and then co-cultured with the CD8+ T cell hybridoma, B3Z.
The level of B3Z cell activation and the effects of the various test molecules on B3Z activation were quantified in cell lysates using the β-gal chromogenic substrate, CPRG. The media was removed and 100 μL of 250 μM CPRG reconstituted in the lysis buffer (1×DPBS, 0.2% v/v saponin, 20 mM magnesium chloride) was added directly to each well. Cells were maintained at 37° C. prior to measurement. The absorbance at 560 nm (700 nm for background) was intermittently monitored using a BioTek Synergy HTX multimode microplate reader (Winooski, VT) to detect β-gal activity. CPRG lysis buffer and B3Z cells only served as the negative controls. All treatments were performed in triplicate and all experiments were repeated a minimum of three times.
Activation of B3Z T cell hybridoma cells was assessed following their exposure to various MHC class I H-2K^b positive cell lines presenting the SIINFEKL peptide. B3Z are a CD8+ SIINFEKL peptide specific T-cell hybridoma expressing a beta-galactosidase (β-gal) reporter gene driven by NF-AT elements on the interleukin 2 (IL-2) promoter. […] Activation of B3Z leads to production of β-gal whose presence can be quantified using the optimized detection assay described by Jendresen et al. (Jendresen, et al., An improved CPRG colorimetric ligand-receptor signal transduction assay based on beta-galactosidase activity in mammalian BWZ-reporter cells. J Pharmacol Toxicol Methods. 2018 March-April; 90:67-75).
To stimulate β-gal production in the B3Z, the H-2Kb murine cell lines, DC2.4, B16F10, and E.G7-OVA, or freshly isolated murine splenocytes, were plated at a density of 2.5 or 5×10^4 cells/well (100 μL/well in 96 well plates) and cultured overnight at 37° C. in an atmosphere containing 5% CO2 and 95% humidity. The cells were washed with DPBS and then treated for 1-24 h with the indicated concentrations of BzFβ suspended in complete media. Vehicle controls were always included. […]
To detect activation of the B3Z cells, the media was removed and 100 μL of 250 µM CPRG reconstituted in the lysis buffer (1×DPBS, 0.2% v/v saponin, 20 mM magnesium chloride) was added directly to each well. […] The absorbance at 560 nm (700 nm for background) was intermittently monitored using a BioTek Synergy HTX multimode microplate reader (Winooski, VT) to detect β-gal activity. […]

O=C(O)/C=C/c1ccc2occc2c1 [BzFβ, (2E)-3-(1-benzofuran-5-yl)prop-2-enoic acid]
SIINFEKL-specific CD8+ T cell response [1]: enhanced SIINFEKL-specific CD8+ T cell response | B3Z response versus peptide pulsed DC2.4 alone ([2]; co-treatment 1 h, 25 μg/mL BzFβ, 15 pM to 1 nM SIINFEKL, 19 h coculture): significantly greater | time to significantly enhanced B3Z activation ([2]; peptide pulsed DC2.4): 5 min
